Series [1] concerns E. coli ATCC 25992. The following applies: for MBC: colonies' growth on agar plates after microdilution, N/D = not detected antibacterial activity; for MIC: microdilution (NCCLS), MH broth, 5 × 10^5 CFU/mL, 37 °C, 20 h, absorbance, 50 to 1.56 μM. As to the method:
(§1) The three peptides were tested for their antibacterial activity. […] As described in the Materials and Methods section, the antibacterial effect of peptides was investigated using a microdilution assay. Each concentration of AMPs was inoculated with bacteria in 96-well plates and incubated at 37 °C for 20 h. After that, MIC values were determined by analyzing absorbance and expressed as a percentage of inhibition. MBC was assessed by observing the colonies’ growth on agar plates, as described elsewhere.
(§2) Each strain was grown in Mueller Hinton Broth (MH Broth), and 5 × 10^5 CFU/mL was used to evaluate antibacterial activity. Clinical carbapenem-resistant K. pneumoniae and E. coli isolates were collected at the AOU of Virology and Microbiology of the University of Campania “Luigi Vanvitelli”.
(§3) The antimicrobial activity of Hylin-a1, AR-23, and RV-23 was investigated using a microdilution assay as reported by the National Committee on Clinical Laboratory Standards (NCCLS) guidelines against a broad spectrum of Gram-negative bacteria. […] In 96-well, the standardized bacterial inoculum (5 × 10^5 colony forming units, CFU/mL) was inoculated together with AMPs and incubated at 37 °C for 20 h. After the time of incubation, optical density (OD) was measured at TECAN, and data were expressed as a percentage of inhibition. In addition to assessing the MIC values, the bactericidal effect was also studied as reported elsewhere.
(Dilution methods test growth across graded concentrations, often in twofold steps.)

A further series relates to K. pneumoniae ATCC 10031. The following applies: for MBC: colonies' growth on agar plates after microdilution, N/D = not detected antibacterial activity; for MIC: microdilution (NCCLS), MH broth, 5 × 10^5 CFU/mL, 37 °C, 20 h, absorbance, 50 to 1.56 μM. As to the method:
as §1, §2, §3

The test system of another series is K. pneumoniae 311. The conditions noted are these: carbapenemase OXA-48 (class D), rectal swab, N/D = no antibacterial activity detected. As to the method:
as §2, §3

Series [2] relates to E. coli ATCC 25992. The experiment in a line: Time-kill assay. The class given is cell-based, Escherichia coli. As to the method: This in vitro method allows for assessing the kinetics of bacterial killing by peptides over time. […] Specifically, at each time point, 50 μL aliquots of the bacterial–peptide mixtures were collected and plated on agar (see Materials and Methods for further details). Following incubation, colony-forming units (CFUs) were counted and the killing rate of each peptide concentration was calculated (Figure 2).
Figure 2 Evaluation of the kinetic-killing effect of Hylin-a1, AR-23, and RV-23 against K. pneumoniae and E. coli. […] Untreated bacteria was used as control negative (CTR- in black).
Using the same conditions as the MIC assay, a time–kill test was performed to monitor bacterial growth over time. […] Finally, bacterial colonies were counted, and the CFU/mL was calculated.

A short description of another series: Serum stability assay. The format is in vitro ADME, bovine. The following applies: 10% FBS. As to the method: The susceptibility of Hylin-a1, AR-23, and RV-23 to proteolytic degradation in serum was evaluated, following the protocol reported in Section 4.3.
Figure 6 AMP stability in serum. Stability profiles of Hylin-a1 (red line), AR-23 (gray line), and RV-23 (black line) are reported. All stability tests were performed at least in triplicate. LC-MS analyses were performed using an Agilent 1260 Infinity II LC/MSD system (Milan, Italy). The percentages of intact peptides after different time points of incubation in serum were determined by integrating RP-HPLC peaks from the chromatograms recorded at a wavelength of 210 nm. The test was performed in triplicate, and the data are presented as mean values, with error bars representing standard deviations.
Peptides were mixed with 10% FBS at a final concentration of 0.2 mg/mL and incubated in a water bath at 37 °C. […] Then, the mixture was diluted with 0.1% TFA in H2O (1:1). Samples were characterized using LC-MS on a C18 Aeris Peptide column (100 × 2.1 mm), applying a linear gradient from 5 to 80% solvent B (0.1% TFA in CH3CN) over solvent A (0.1% TFA in water) in 15 min at a flow rate of 0.2 mL/min. All stability tests were performed at least in triplicate. LC-MS analyses were performed using an Agilent 1260 Infinity II LC/MSD system (Milan, Italy).

In series [3] the test system is E. coli. The following applies: against E. coli; ref 63 (Zhang et al.); cited from earlier work. From the text:
The activity of AR-23 and RV-23 against Gram-negative bacteria has been briefly described in previous studies. Zhang et al. evaluated the antibacterial effects of both peptides against E. coli. […] The authors attributed this enhanced activity to RV-23’s lower hydrophobicity and higher hydrophobic moment, factors strongly associated with reduced cytotoxicity and greater selectivity compared to AR-23. In contrast, the antibacteri ...

The next series concerns K. pneumoniae. As to the kind of experiment: Checkerboard assay with meropenem. The following applies: checkerboard, 20 h, OD600.
The test system of series [4] is E. coli. As to the kind of experiment: Checkerboard assay with meropenem. The conditions noted are these: for MIC of peptide in combination with meropenem: checkerboard, 20 h, OD600.

Where no end group is shown, it is not given here. Some results are limits rather than exact numbers.

As usually defined, the MBC is the smallest concentration meeting the test's criterion for killing. The low end stands for more potent killing, the high end for less potent killing. As usually defined, the MIC is the lowest concentration that inhibits growth of the organism. For orientation: half-life means the time in which the quantity being followed falls by half. What is called fraction remaining is the share of the starting amount still present when the sample was taken.

As for RIGVLLARLPKLFSLFKLMGKKV-NH2 [RV-23], the figures for the MBC with E. coli ATCC 25992 [1], with K. pneumoniae ATCC 10031 and with K. pneumoniae 311 were 12.5 µM, 12.5 µM and 50 µM, respectively. In addition, the minimum inhibitory concentration (MIC) against E. coli ATCC 25992 [1] was 12.5 µM; in the series on K. pneumoniae ATCC 10031, 6.25 µM; against K. pneumoniae 311 (microdilution, 37 °C, 20 h) it was 50 µM; with E. coli [3] it was 3.33 µM. Besides, in the series with E. coli ATCC 25992 [2], the “time to significant reduction in bacterial viability / bactericidal effect” value was not above 2 h. Moreover, the “percentage of intact fragments, almost constant up to 24 h” value in the series “Serum stability assay” (0.2 mg/mL, 37 °C, RP-HPLC peaks at 210 nm, mean of triplicate, after the first 2 h up to 24 h) is on record as “around 30%”. Further, in the series “Serum stability assay” (serum, peptide 0.2 mg/mL, 37 °C water bath, ethanol precipitation, LC-MS, RP-HPLC peak integration at 210 nm, at least triplicate), the half-life is less than 2 h. The results for the “MIC of peptide in combination with meropenem” value with K. pneumoniae and in the series with E. coli [4] were 3.125 µM and 6.25 µM, respectively.
Turning to IFGAILPLALGALKNLIK-NH2 [Hylin-a1], in the series with E. coli ATCC 25992 [1], the MBC was 25 µM and the MIC is 25 µM. In addition, in the series on K. pneumoniae ATCC 10031, the MBC was 6.25 µM and the MIC is 6.25 µM. For the same substance, in the series on E. coli ATCC 25992 [2], the “bacterial killing in time-kill assay” value is recorded as “kills bacteria”. For the same substance, the fraction remaining at 16 h in “Serum stability assay” (serum, after 16 h, 0.2 mg/mL, 37 °C, RP-HPLC peaks at 210 nm, mean of triplicate, read-out: intact peptide remaining in solution) came out at 60%. The “MIC of peptide in combination with meropenem” value with E. coli [4] is 3.125 µM. For the same substance, the “combinatory effect of peptide and meropenem” value in the series on E. coli [4] (interpretation of FICI by Table 4) is reported as “partial synergism”.

The record behind these values is publication PMC12024264, “Frog Skin Peptides Hylin-a1, AR-23, and RV-23: Promising Tools Against Carbapenem-Resistant Escherichia coli and Klebsiella pneumoniae Infections” (Antibiotics, 2025).
